# In patent US20020182614A1, “Expression analysis of inhibitor of differentiation nucleic acids and polypeptides useful in the diagnosis and treatment of prostate cancer” (priority 2000, published 2002):
# Legend:
# [1] = test system: ID-1; conditions: LNCaP cells, in the presence of androgen
# [2] = test system: ID-3; conditions: LNCaP cells, in the presence of androgen
# [3] = test system: PSA; conditions: LNCaP cells, mRNA
# [4] = test system: PSA
# [5] = test system: LNCaP cells
# Procedure: Human prostatic cancer cell lines LNCaP, DU-145, PC-3, and Tsu-prl were obtained from ATCC. LNCaP cancer cells were maintained in humidified atmosphere of 5% CO2 in air in RPMI 1640 medium supplemented with 10% fetal calf serum (Life Technologies, Inc, Rockville, Md.), 3 mM L-glutamine, 100 μg/ml streptomycin and 100 units/ml penicillin. Other lines were maintained in DMEM containing 3 mM L-glutamine, 100 μg/ml streptomycin, 100 units/ml penicillin, and 10% FCS in humidified atmosphere of 5% CO2. To examine the effects of steroids, cells were cultured in RPMI 1640 medium containing 5% FCS treated with dextran coated charcoal (Hyclone, Logan, Utah) for 24 hs before treatment. Cells were grown in the absence or presence of 10 nM DHT for 0, 2, 4, 6, 12, 24, 48, and 72 hs. They were collected and frozen at each time point. Two hundred μl of medium were collected from each flask for PSA assay.
# To verify the effect of DHT on the growth of LNCaP cells, cells at 3,000 cells/well were plated in 96-well plates for 24 hs before treatment with DHT. After 72 hs, MTT was added to each well and incubated at 37° C. for four hs. At the end of incubation, the supernatant was removed and 100 μl DMSO was added to each well to dissolve […]. Plates were subsequently read in a plate reader at […].
compound,measurement,setting,value
"C[C@]12CCC(=O)C[C@@H]1CC[C@@H]1[C@@H]2CC[C@]2(C)[C@@H](O)CC[C@@H]12 [DHT, dihydrotestosterone]",ID-1 expression level,[1],reduced
same,ID-3 expression level,[2],reduced
same,PSA expression increase relative to control,[3]; 12 hours,3 fold
same,PSA expression induction relative to control,[3]; 72 hours,approximately 4 fold
same,PSA production,[4],increased in a dose-dependent manner
same,time at which PSA signal was first detected,[4],12 h
same,time of maximal PSA level,[4],about 48 hs
same,growth-stimulatory effect,[5]; 10 nM DHT,robust growth-stimulatory effect
same,growth of LNCaP cells,"[5]; MTT assay, FIG. 1A",stimulated
